Patent US11214803B2, “Modulators of YAP1 expression” (Ionis Pharmaceuticals, Inc., priority 2019, dated 2022)

How the values were obtained:
Yap1 mRNA [1] = assay: Dose-dependent inhibition of human Yap1 in A-431 cells (Example 24, 11,000 cells per well, RTS36584, normalized to GAPDH); assay type: cell-based; conditions: free uptake, 48 hours; for Yap1 mRNA, % UTC: RTS36584, normalized to GAPDH; for IC50: linear regression on a log/linear plot
Experimental: Modified oligonucleotides described in the studies above were tested at various doses in A-431 cells. Cultured A-431 cells at a density of 11,000 cells per well were treated using free uptake with modified oligonucleotides diluted to concentrations described in the tables below. After approximately 48 hours, Yap1 mRNA levels were measured as previously described using the Human Yap1 primer-probe set RTS36584. Yap1 mRNA levels were normalized to GAPDH content, as measured by primer probe set RTS104 (forward sequence […], designated herein as SEQ ID NO.: 17; reverse sequence […], designated herein as SEQ ID NO.: 18; probe sequence […], designated herein as SEQ ID NO.: 19). Results are presented in the tables below as percent control of the amount of Yap1 mRNA relative to untreated control cells (% UTC). IC50s were calculated using a linear regression on a log/linear plot of the data in excel.

[2] = Cynomolgus monkey tolerability, coagulation (Example 34); assay type: in vivo; conditions: cynomolgus monkeys, 35 mg/kg subcutaneously, day 44
Experimental: To evaluate effect of Ionis modified oligonucleotides on coagulation in cynomolgus monkeys, blood samples of approximately 0.9 mL were collected from each of the available study animals on day 44. The samples were collected in tubes containing 3.2% sodium citrate. Coagulation parameters tested include Activated partial thromboplastin time (APTT), prothrombin time (PT) and Figrinogen (FIB).

Yap1 mRNA [3] = assay: Dose-dependent inhibition of human Yap1 in SNU-449 cells (Example 9, RTS36584); assay type: cell-based; conditions: free uptake; for % UTC (Yap1 mRNA): approximately 48 hours; for IC50: linear regression on a log/linear plot
Method in brief: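 SNU-449 cells (10,000/well) took up modified oligonucleotides by free uptake at a range of doses for about 48 h. Yap1 mRNA was quantified with primer-probe set RTS36584, normalised to RIBOGREEN total RNA and expressed as % untreated control; IC50 from linear regression on log/linear plot.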

[4] = Cynomolgus monkey tolerability, hematology (Example 34); assay type: in vivo, cynomolgus monkeys; conditions: for BAS / EOS / HCT / HGB / LUC / LYM / MCH / MCHC / MCV / MON / NEU / PLT / RBC / RCDW / Retic / WBC: cynomolgus monkey, in vivo, sc, 35 mg/kg; for MPV: cynomolgus monkeys, 35 mg/kg subcutaneously, day 44
Method in brief: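 On day 44, blood from oligonucleotide-treated cynomolgus monkeys was collected into K2-EDTA. An automated analyzer measured red cell indices, reticulocytes, platelets and MPV, and total and differential white cell counts.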

[5] = Tolerability in Sprague-Dawley rats, plasma chemistry markers (Example 22); assay type: in vivo; conditions: male Sprague-Dawley rats, 50 mg/kg s.c. weekly for 6 weeks (7 doses), 48 hours after last dose
Experimental: Sprague-Dawley rats are a multipurpose model used for safety and efficacy evaluations. The rats were treated with Ionis modified oligonucleotides from the studies described in the Examples above and evaluated for changes in the levels of various plasma chemistry markers.

Yap1 mRNA [6] = assay: Inhibition of human Yap1 mRNA in SNU449 hepatocellular carcinoma xenograft tumors (Example 26); assay type: in vivo; conditions: SNU449 xenografts in NSG mice, 50 mg/kg twice weekly for five days, relative to PBS treated animals
Method in brief: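 Female NSG mice bearing subcutaneous SNU449 xenografts (about 100 mm^3) dosed with modified oligonucleotides at 50 mg/kg twice weekly for five days, four per group. Tumour Yap1 mRNA measured by RT-qPCR, normalized to actin-beta, expressed as % of PBS-treated controls.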

[7] = cynomolgus monkey, in vivo, sc, 35 mg/kg
[8] = Cynomolgus monkey tolerability, kidney and liver function markers (Example 34); conditions: cynomolgus monkeys, 35 mg/kg subcutaneously, day 44
[9] = Tolerability in Sprague-Dawley rats, body and organ weights (Example 22); assay type: in vivo; conditions: male Sprague-Dawley rats, 50 mg/kg s.c. weekly for 6 weeks (7 doses); for Kidney weight / Liver weight / Spleen weight: end of study; for body weight: terminal, prior to necropsy
Experimental: Terminal body weight was measured prior to necropsy. Ionis oligonucleotides that caused any changes in organ weights outside the expected range for modified oligonucleotides were excluded from further studies.

1198605 (GTAATATTGCAATCTG; modified gapmer, further chemistry not given here) [compound 1198605]
Yap1 mRNA, % UTC (Yap1 mRNA [1]; 0.002 μM): 0 % UTC
Yap1 mRNA, % UTC (Yap1 mRNA [1]; 0.008 μM): 2 % UTC
Yap1 mRNA, % UTC (Yap1 mRNA [1]; 0.04 μM): 26 % UTC
Yap1 mRNA, % UTC (Yap1 mRNA [1]; 0.2 μM): 57 % UTC
Yap1 mRNA, % UTC (Yap1 mRNA [1]; 1 μM): 96 % UTC
IC50 (Yap1 mRNA [1]): 20 nM
APTT [2]: 23 s
FIB [2]: 236 mg/dL
PT [2]: 9 s
% UTC (Yap1 mRNA) (Yap1 mRNA [3]; 31.3 nM): 57 % UTC
% UTC (Yap1 mRNA) (Yap1 mRNA [3]; 125.0 nM): 27 % UTC
% UTC (Yap1 mRNA) (Yap1 mRNA [3]; 500.0 nM): 7 % UTC
% UTC (Yap1 mRNA) (Yap1 mRNA [3]; 2000.00 nM): 1 % UTC
IC50 (Yap1 mRNA [3]): 30 nM
BAS [4]: 0.4%
EOS [4]: 0.8%
HCT [4]: 46%
HGB [4]: 13 g/dL
LUC [4]: 0.5%
LYM [4]: 51%
MCH [4]: 22 pg
MCHC [4]: 29 g/dL
MCV [4]: 75 fL
MON [4]: 2.8%
NEU [4]: 44%
PLT [4]: 385 10^3/μL
RBC [4]: 6.1e+06 µL⁻¹
RCDW [4]: 13%
Retic [4]: 1.1%
WBC [4]: 10500 µL⁻¹
MPV [4]: 8.1 fL
ALT [5]: 46 U/L
AST [5]: 76 U/L
BUN [5]: 18 mg/dL
TBIL [5]: 0.33 mg/dL
Yap1 mRNA in tumors, % control (Yap1 mRNA [6]): 55 % control
A/G ratio [7]: 1.5
ALB [8]: 4.0 g/dL
ALP [8]: 1445 IU/L
ALT [8]: 40 IU/L
AST [8]: 58 IU/L
BUN [8]: 22 mg/dL
CREA [8]: 0.8 mg/dL
GGT [8]: 85 IU/L
GLO [8]: 2.7 g/dL
GLU [8]: 69 mg/dL
HDL [8]: 115 mg/dL
LDL [8]: 57 mg/dL
TBIL [8]: 0.2 mg/dL
TG [8]: 25 mg/dL
TP [8]: 6.7 g/dL
Kidney weight [9]: 3.6 g
Liver weight [9]: 18 g
Spleen weight [9]: 2.1 g
body weight [9]: 372 g

1198728 (TATTAGAGTATGTGGC; modified gapmer, further chemistry not given here) [compound 1198728]
Yap1 mRNA, % UTC (Yap1 mRNA [1]; 0.002 μM): 1 % UTC
Yap1 mRNA, % UTC (Yap1 mRNA [1]; 0.008 μM): 4 % UTC
Yap1 mRNA, % UTC (Yap1 mRNA [1]; 0.04 μM): 27 % UTC
Yap1 mRNA, % UTC (Yap1 mRNA [1]; 0.2 μM): 85 % UTC
Yap1 mRNA, % UTC (Yap1 mRNA [1]; 1 μM): 87 % UTC
IC50 (Yap1 mRNA [1]): 20 nM
APTT [2]: 18 s
FIB [2]: 242 mg/dL
PT [2]: 9 s
% UTC (Yap1 mRNA) (Yap1 mRNA [3]; 31.3 nM): 51 % UTC
% UTC (Yap1 mRNA) (Yap1 mRNA [3]; 125.0 nM): 28 % UTC
% UTC (Yap1 mRNA) (Yap1 mRNA [3]; 500.0 nM): 9 % UTC
% UTC (Yap1 mRNA) (Yap1 mRNA [3]; 2000.00 nM): 3 % UTC
IC50 (Yap1 mRNA [3]): < 30 nM
BAS [4]: 0.5%
EOS [4]: 2.2%
HCT [4]: 47%
HGB [4]: 14 g/dL
LUC [4]: 0.9%
LYM [4]: 64%
MCH [4]: 23 pg
MCHC [4]: 29 g/dL
MCV [4]: 80 fL
MON [4]: 2.9%
NEU [4]: 29%
PLT [4]: 428 10^3/μL
RBC [4]: 5.9e+06 µL⁻¹
RCDW [4]: 12%
Retic [4]: 1.3%
WBC [4]: 10700 µL⁻¹
MPV [4]: 8.0 fL
ALT [5]: 54 U/L
AST [5]: 71 U/L
BUN [5]: 22 mg/dL
TBIL [5]: 0.18 mg/dL
Yap1 mRNA in tumors, % control (Yap1 mRNA [6]): 64 % control
A/G ratio [7]: 1.3
ALB [8]: 4.1 g/dL
ALP [8]: 1165 IU/L
ALT [8]: 58 IU/L
AST [8]: 92 IU/L
BUN [8]: 26 mg/dL
CREA [8]: 0.9 mg/dL
GGT [8]: 59 IU/L
GLO [8]: 3.2 g/dL
GLU [8]: 95 mg/dL
HDL [8]: 95 mg/dL
LDL [8]: 57 mg/dL
TBIL [8]: 0.3 mg/dL
TG [8]: 24 mg/dL
TP [8]: 7.3 g/dL
Kidney weight [9]: 2.9 g
Liver weight [9]: 15 g
Spleen weight [9]: 1.4 g
body weight [9]: 381 g

1198831 (CACTTTTACATTAGGA; chemically modified gapmer, further chemistry not given here) [compound 1198831]
Yap1 mRNA, % UTC (Yap1 mRNA [1]; 0.002 μM): 2 % UTC
Yap1 mRNA, % UTC (Yap1 mRNA [1]; 0.008 μM): 6 % UTC
Yap1 mRNA, % UTC (Yap1 mRNA [1]; 0.04 μM): 28 % UTC
Yap1 mRNA, % UTC (Yap1 mRNA [1]; 0.2 μM): 72 % UTC
Yap1 mRNA, % UTC (Yap1 mRNA [1]; 1 μM): 83 % UTC
APTT [2]: 18 s
FIB [2]: 209 mg/dL
PT [2]: 10 s
% UTC (Yap1 mRNA) (Yap1 mRNA [3]; 31.3 nM): 74 % UTC
% UTC (Yap1 mRNA) (Yap1 mRNA [3]; 125.0 nM): 33 % UTC
% UTC (Yap1 mRNA) (Yap1 mRNA [3]; 500.0 nM): 10 % UTC
% UTC (Yap1 mRNA) (Yap1 mRNA [3]; 2000.00 nM): 4 % UTC
IC50 (Yap1 mRNA [3]): 100 nM
BAS [4]: 0.3%
EOS [4]: 2.0%
HCT [4]: 43%
HGB [4]: 13 g/dL
LUC [4]: 0.8%
LYM [4]: 50%
MCH [4]: 23 pg
MCHC [4]: 30 g/dL
MCV [4]: 76 fL
MON [4]: 3.3%
NEU [4]: 44%
PLT [4]: 377 10^3/μL
RBC [4]: 5.6e+06 µL⁻¹
RCDW [4]: 12%
Retic [4]: 1.0%
WBC [4]: 7600 µL⁻¹
MPV [4]: 7.3 fL
ALT [5]: 54 U/L
AST [5]: 69 U/L
BUN [5]: 23 mg/dL
TBIL [5]: 0.20 mg/dL
Yap1 mRNA in tumors, % control (Yap1 mRNA [6]): 67 % control
A/G ratio [7]: 1.4
ALB [8]: 3.9 g/dL
ALP [8]: 1096 IU/L
ALT [8]: 48 IU/L
AST [8]: 63 IU/L
BUN [8]: 26 mg/dL
CREA [8]: 0.7 mg/dL
GGT [8]: 65 IU/L
GLO [8]: 2.8 g/dL
GLU [8]: 73 mg/dL
HDL [8]: 108 mg/dL
LDL [8]: 63 mg/dL
TBIL [8]: 0.3 mg/dL
TG [8]: 22 mg/dL
TP [8]: 6.7 g/dL
Kidney weight [9]: 3.3 g
Liver weight [9]: 19 g
Spleen weight [9]: 2.0 g
body weight [9]: 426 g
